# Laboratory results published in US9067974B2, “Polymyxin derivatives and uses thereof” (priority 2006, dated 2015).
# pIC50: −log10 of the molar value. Where two headings read alike, the source gives them in different places.
# What was measured:
# E. coli IH3080 (K1:O18) [1] = assay: Experimental E. coli peritonitis model in mice; type: in vivo; conditions: 5 mg/kg subcutaneous
# Protocol: A suspension of E. coli IH3080 (K1:O18) in saline (0.9% NaCl) was prepared from an overnight culture on a blood agar plate (Statens Serum Institut, Copenhagen, Denmark). All mice (female NMR1 from Harlan Scandinavia, Allerød, Denmark; weight, 25-30 g) were inoculated intraperitoneally with 0.5 ml of the suspension containing 0.96×10^6 CFU per ml in the lateral lower quadrant of the abdomen. At 1 h, the CFU count was determined from three mice and the remaining mice (four mice per group) were treated with a subcutaneous injection of 0.2 ml of erythromycin solution in saline (corresponding to 5 mg/kg body weight) or NAB7061 solution in saline (corresponding to 5 mg/kg body weight), or both erythromycin and NAB7061 (corresponding to 5 mg/kg body weight of both drugs; given at two separate sites). Control group received two 0.2 ml injections of saline. At 4.5 h postinfection, all mice were anaesthetized with CO2 and sacrificed. Sterile saline (2 ml) was injected intraperitoneally and the abdomen was gently massaged before it was opened and the fluid sampled. Appropriate dilutions of the fluid were plated on blood agar plates, the plates were incubated overnight, and the colonies were counted.
# Ac. baumannii F264 = assay: E-test MIC of antibiotics on Mueller-Hinton agar with or without NAB7061 (4 μg/ml); sensitization factor = MIC ratio absence/presence; type: cell-based; conditions: Acinetobacter baumannii, NAB 7061 0 μg/ml, A. baumannii F264
# Protocol: (§1) MICs were determined by using E-strips (Biodisk Ltd., Solna, Sweden) according to the manufacturer's instructions.
# (§2) The strains originated from ATCC (11 strains), CCUG (11 strains), and NCTC (The National Collection of Type Cultures, Colindale, U.K.; 2 strains). Eight strains (the F-strains) were purchased from Mobidiag Ltd., Helsinki, Finland. The source of E. coli IH3080 has been given in Example 2. Sensitization factor was defined as in Example 7.
# (§3) Sensitization factor was defined as in Example 7. NAB7061 sensitized both carbapenem-resistant strains (F263, F264) to both carbapenems by a factor ≧4.
# Ac. baumannii F263 = assay: as above; type: cell-based; conditions: Acinetobacter baumannii, NAB 7061 0 μg/ml, A. baumannii F263
# Protocol: as §1, §2, §3
# Ac. baumannii ATCC19606 = assay: as above; type: cell-based; conditions: Acinetobacter baumannii, NAB 7061 0 μg/ml, A. baumannii ATCC19606
# Protocol: as §1, §2, §3
# E. coli IH3080 = assay: Sensitization to rifampin: well diffusion growth inhibition on LB plates containing rifampin; type: cell-based, Escherichia coli; conditions: 4 μg of compound
# E. coli IH3080 (K1:O18) [2] = assay: Well diffusion growth inhibition on LB agar plates (direct antibacterial activity); type: cell-based, Escherichia coli
# Summary of the method: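 Growth inhibition of encapsulated E. coli IH3080 (K1:O18) was measured by well diffusion on LB agar plates. A suspension of about 10^8 cells/ml in 0.9% NaCl, made from an overnight LB agar culture, was spread over the plates and the excess removed. Once dry, five 2 mm wells were drilled per plate and test solutions added, with 0.9% NaCl as control. After 18 h at 37° C, inhibition zone diameters were measured and converted to surface areas in square mm.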
# [3] = system: Acinetobacter baumannii ATCC 19606; assay: as above; type: cell-based; conditions: A. baumannii ATCC 19606
# Summary of the method: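 Direct antibacterial activity against Acinetobacter baumannii ATCC 19606 was measured by agar well diffusion on LB plates. The plates were flooded with a suspension of approx. 10^8 cells/ml in 0.9% NaCl, and the excess was removed. Once the surface dried, five wells of 2 mm diameter were drilled per plate. The wells were filled with test compound dissolved in 0.9% NaCl, with plain 0.9% NaCl as control. After 18 h at 37° C., inhibition zone diameters were measured and converted to growth inhibition areas in square mm.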
# [4] = system: Pseudomonas aeruginosa ATCC 27853; assay: as above; type: cell-based; conditions: Ps. aeruginosa ATCC 27853
# Summary of the method: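 Pseudomonas aeruginosa ATCC 27853 was tested for direct antibacterial susceptibility by agar well diffusion. A suspension of about 10^8 cells/ml in 0.9% NaCl was spread over LB agar and the excess removed. After drying, 2 mm wells were drilled and filled with compound dissolved in 0.9% NaCl, with NaCl alone as control. Plates were incubated 18 h at 37° C, and inhibition zone diameters were measured and converted to areas in square mm.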
# [5] = Two-week intravenous toxicity study in young rats; type: in vivo
# Protocol: Toxicity in young rats (weighing approx. 150 g in the beginning of the study) was determined by administering doses (1, 2, 4, 8, 16, and 32 mg/kg per day) of NAB7061 as well as the control compound polymyxin B intravenously twice (2) a day for two weeks. A group of ten (10) rats was studied for each dosis regimen. Clinical observations were made daily, the body weight measured twice weekly, and the food consumption twice weekly. In the end of week 2, all animals were sacrificed.
# Histopathology of kidneys was performed for each animals and histopathology of all tissues was performed in three high-dose groups receiving NAB7061.
# [6] = target: brush-border membrane (BBM) from the renal cortex; assay: Inhibition of [3H] gentamycin binding to brush-border membrane vesicles; design: species or system rats; conditions: 20 μM [3H] gentamycin; 60 min at 4° C.; rat renal cortex BBM vesicles
# Excerpt: The binding of the compounds according to this invention to isolated brush-border membrane (BBM) from the renal cortex can be measured indirectly by measuring their ability to inhibit the binding of radiolabelled gentamycin to BBM. Accordingly, the compounds according to this invention that have less affinity to BBM than for example polymyxin B inhibit the binding of radiolabelled gentamycin to a lesser degree than does polymyxin B.
# BBM was isolated from the renal cortex of male albino rats by using the Mg^2+/EGTA precipitation technique as described by Nagai et al. (2006). The binding of gentamycin was measured, according to the method described by Nagai et al. (2006) by incubating BBM vesicles (20 μl) in 10 mM HEPES (pH 7.5) with 100 mM mannitol in the presence of 20 μM [^3H] gentamycin (Amersham Biosciences Inc., Buckinghamshire, U.K.) with or without the compound to be tested or a positive control. After an incubation of 60 min at 4° C., 1 ml of ice-cold buffer described above was added, and the mixture was filtered through a Millipore filter (0.45 μm; HAWP). The filter was washed with the buffer and the radioactivity remaining in the filter was measured by using a liquid scintillation counter. The IC50 values were determined as in Nagai et al. (2006) using the Hill equation.
# E. coli = conditions: Sakura et al. 2004; cited from earlier work
molecule,measurement,setting,value
CC[C@H]1OC(=O)[C@H](C)[C@@H](O[C@H]2C[C@@](C)(OC)[C@@H](O)[C@H](C)O2)[C@H](C)[C@@H](O[C@@H]2O[C@H](C)C[C@H](N(C)C)[C@H]2O)[C@](C)(O)C[C@@H](C)C(=O)[C@H](C)[C@@H](O)[C@]1(C)O [erythromycin],CFU counts in peritoneal fluid,E. coli IH3080 (K1:O18) [1]; 4.5 h postinfection ([…] after the treatment),8.9 (±6.4)×10^6 per ml
same,Factor of increase of the bacterial count,E. coli IH3080 (K1:O18) [1]; from 1 h to 4.5 h postinfection,12
"C[C@@H](O)[C@H]1C(=O)N2C(C(=O)O)=C(SCCN=CN)C[C@H]12 [imipenem, reference compound]",MIC,Ac. baumannii F264; read-out: MIC of imipenem,24 µg/mL
same,MIC,Ac. baumannii F263; read-out: MIC of imipenem,> 32 µg/mL
same,MIC,Ac. baumannii ATCC19606; read-out: MIC of imipenem,0.38 µg/mL
"C[C@@H](O)[C@H]1C(=O)N2C(C(=O)O)=C(S[C@@H]3CN[C@H](C(=O)N(C)C)C3)[C@H](C)[C@H]12 [meropenem, reference compound]",MIC,Ac. baumannii F264; read-out: MIC of meropenem,32 µg/mL
same,MIC,Ac. baumannii F263; read-out: MIC of meropenem,> 32 µg/mL
same,MIC,Ac. baumannii ATCC19606; read-out: MIC of meropenem,1.5 µg/mL
"MO(H)A-XTX-cy[XXFLXXT], SEQ ID NO:1; commercially available polymyxin B is a mixture [reference compound]",Antibacterial activity in the presence of rifampin (growth inhibition area around a well),E. coli IH3080; rifampin 0 μg/ml,79 square millimeters
same,Antibacterial activity in the presence of rifampin (growth inhibition area around a well),E. coli IH3080; rifampin 0.1 μg/ml,95 square millimeters
same,Antibacterial activity in the presence of rifampin (growth inhibition area around a well),E. coli IH3080; rifampin 1.0 μg/ml,104 square millimeters
same,Antibacterial activity (growth inhibition area around a well),E. coli IH3080 (K1:O18) [2]; 4 μg of compound per well,79 square millimeters
same,Antibacterial activity (growth inhibition area around a well),E. coli IH3080 (K1:O18) [2]; 10 μg of compound per well,133 square millimeters
same,Antibacterial activity (growth inhibition area around a well),[3]; 4 μg per well,113 square millimeters
same,Antibacterial activity (growth inhibition area around a well),[3]; 10 μg per well,154 square millimeters
same,Antibacterial activity (growth inhibition area around a well),[4]; 4 μg per well,95 square millimeters
same,Antibacterial activity (growth inhibition area around a well),[4]; 10 μg per well,133 square millimeters
same,Rise of blood urea nitrogen (BUN) versus control or low dose group,"[5]; rat, in vivo, 16 mg/kg/day",15%
same,Lowest dose that negatively influenced the body weight gain,"[5]; rat, in vivo, iv",1 mg/kg per day
same,Mortality,"[5]; rats, 32 mg/kg per day intravenously for two weeks",100%
same,pIC50,[6],4.41
gentamycin [unlabelled gentamycin],pIC50,[6],4.04
"octanoyl polymyxin B heptapeptide [Octanoyl PMBH, reference compound]",Antibacterial activity in the presence of rifampin (growth inhibition area around a well),E. coli IH3080; rifampin 0 μg/ml,0 square millimeters
same,Antibacterial activity in the presence of rifampin (growth inhibition area around a well),E. coli IH3080; rifampin 0.1 μg/ml,0 square millimeters
same,Antibacterial activity in the presence of rifampin (growth inhibition area around a well),E. coli IH3080; rifampin 1.0 μg/ml,38 square millimeters
same,Antibacterial activity (growth inhibition area around a well),E. coli IH3080 (K1:O18) [2]; 4 μg of compound per well,0 square millimeters
same,Antibacterial activity (growth inhibition area around a well),E. coli IH3080 (K1:O18) [2]; 10 μg of compound per well,0 square millimeters
same,Concentration needed to inhibit the growth of bacteria,E. coli,128 µg/mL
